Laboratory results taken from patent US4614740A, “5H-2,3-benzodiazepine derivatives and pharmaceutical compositions containing the same” (Egis Gyogyszergyar, priority 1984, dated 1986).

How the values were obtained:
[1] = anxiolytic effect, Vogel lick-conflict test; type: in vivo
Experimental: The anxiolytic effect was determined by the method of Vogel lick-conflict test/[Psychopharmacol. 21, 1 1979]. Tofizopam, 1-(3-chlorophenyl)-4-methyl-7,8-dimethoxy-5H-2,3-benzodiazepine and Chlorodiazepoxide 7-chloro-2-methylamino-5-phenyl-3H-1,4-benzodiazepine-4-oxide were used as reference agents.

mice [2] = experiment: narcosis potentiating effect (sodium hexobarbital narcosis); type: in vivo; details: Mus musculus, po, 50 mg/kg sodium hexobarbital i.v., limits between slashes, read-out: ED50 (dose increasing the narcosis period of half of the test animals to double)
Experimental: The narcosis potentiating effect was studied on mice. The compounds were administered in 3 or 4 oral doses to 15-20 animals per dose. Narcosis was induced with 50 mg/kg of sodium hexobarbital injected intravenously into the animals. The ED50 value is the dose increasing the narcosis period of half of the test animals to double.

mice [3] = experiment: antiaggressive effect, "fighting behaviour" test; type: in vivo; details: for ED50: Mus musculus, po; for Relative activity: antiaggressive effect, p.o., tofizopam = 1.0
From the text: The antiaggressive effect was studied on mice by the so-called "fighting behaviour" test [J. Pharm. Exp. Ther. 125, 28 (1959)]. Tofizopam and 1-(3-chlorophenyl)-4-methyl-7,8-dimethoxy-5H-2,3-benzodiazepine were used as reference agents.

[4] = system: mice from the CFLP strain; experiment: spontaneous motor activity, motimeter of Animex type; type: in vivo; details: Mus musculus, po, 2 hours registration, Litchfield and Wilcoxon, limits between slashes, read-out: ED50 value (dose decreasing the spontaneous motor activity to half)
Experimental: The spontaneous motor activity was measured on a motimeter of Animex type. Groups of animal consisting of 3 mice from the CFLP strain weighing 20 to 23 g were starved for 24 hours and put to the apparatus. After a previous treatment of 10 minutes the amount of movements was registered continuously for 2 hours. The dose decreasing the spontaneous motor activity to half in comparison with the control group treated with vehiculum was determined.
The ED50 values were calculated by the method of Litchfield and Wilcoxon [J. Pharmacol. Exp. Ther. 96, 99 1949].

rats = experiment: hypnotic activity in rats (HD50); type: in vivo; details: Rattus norvegicus, iv
mice [5] = experiment: hypnotic activity in mice (HD50); type: in vivo; details: for ED50: Mus musculus, mice
[6] = muscle relaxant activity, "inclined screen" test; type: in vivo
[7] = muscle relaxant activity, rotarod test; type: in vivo; details: ip, read-out: ED50, rotarod test
[8] = tofizopam used in the therapy; cited from earlier work

## COc1cc2c(cc1OC)C(c1cccc(Cl)c1)=NN=C(C)C2 [1-(3-chlorophenyl)-4-methyl-7,8-dimethoxy-5H-2,3-benzodiazepine, reference compound]
[1]; 25 mg/kg i.p.
  Number of electric shocks tolerated: 9.9 ± 2.8
[1]; 50 mg/kg i.p.
  Number of electric shocks tolerated: 19.0 ± 2.3
Mice [2]
  ED50: 16 mg/kg
Mice [3]
  ED50: 16 mg/kg
  Relative activity: 4.6
[4]
  ED50: 6.2 mg/kg

## CNC1=Nc2ccc(Cl)cc2C(c2ccccc2)=[N+]([O-])C1 [Chlorodiazepoxide, 7-chloro-2-methylamino-5-phenyl-3H-1,4-benzodiazepine-4-oxide, reference compound]
[1]; 5 mg/kg i.p.
  Number of electric shocks tolerated: 9.7 ± 3.7
[1]; 10 mg/kg i.p.
  Number of electric shocks tolerated: 27.5 ± 2.5

## COc1cc2c(cc1OC)C(c1ccc(N)cc1)=NN=C(C)C2 [Example 1, 1-(4-aminophenyl)-4-methyl-7,8-dimethoxy-5H-2,3-benzodiazepine]
[1]; 2.5 mg/kg i.p.
  Number of electric shocks tolerated: 4.1 ± 0.7
[1]; 5 mg/kg i.p.
  Number of electric shocks tolerated: 13.9 ± 2.7
[1]; 10 mg/kg i.p.
  Number of electric shocks tolerated: 19.7 ± 2.9
Mice [2]
  ED50: 4.8 mg/kg
Mice [3]
  ED50: 8.1 mg/kg
  Relative activity: 7.9
[4]
  ED50: 3.2 mg/kg

## COc1cc2c(cc1OC)C(c1cccc(N)c1)=NN=C(C)C2 [Example 2, 1-(3-Aminophenyl)-4-methyl-7,8-dimethoxy-5H-2,3-benzodiazepine]
[1]; 10 mg/kg i.p.
  Number of electric shocks tolerated: 4.2 ± 0.7
[1]; 25 mg/kg i.p.
  Number of electric shocks tolerated: 15.1 ± 1.9
Mice [2]
  ED50: 8.2 mg/kg
Mice [3]
  ED50: 12.5 mg/kg
  Relative activity: 5.1
[4]
  ED50: 1.3 mg/kg

## CC1=NN=C(c2ccc(N)cc2)c2cc3c(cc2C1)OCO3 [Example 8, 1-(4-aminophenyl)-4-methyl-7,8-methylenedioxy-5H-2,3-benzodiazepine]
Mice [2]
  ED50: 7.4 mg/kg
rats
  ED50: 40 mg/kg
Mice [5]; ip
  ED50: 70 mg/kg
Mice [5]; iv
  ED50: 40 mg/kg
Mice [5]; po
  ED50: 140 mg/kg
Mice [5]; mice and rats
  hypnotic activity (in words): significant hypnotic activity
[4]
  ED50: 48 mg/kg
[6]; ip, read-out: ED50, inclined screen test
  ED50: 47 mg/kg
[6]; versus Zoxazolamine, inclined screen and rotarod
  muscle relaxant activity (in words): more potent than the reference substance Zoxazolamine
[7]
  ED50: 24 mg/kg

## COc1cc2c(cc1OC)C(c1ccc(N)c(C)c1)=NN=C(C)C2 [Example 10, 1-(3-Methyl-4-aminophenyl)-4-methyl-7,8-dimethoxy-5H-2,3-benzodiazepine]
Mice [2]
  ED50: 7.4 mg/kg
Mice [3]
  ED50: 9.1 mg/kg
  Relative activity: 7.0
[4]
  ED50: 4.4 mg/kg

## COc1cc2c(cc1OC)C(C)C(C)=NN=C2c1ccc(N)cc1 (stereo not drawn) [Example 11, 1-(4-Aminophenyl)-4,5-dimethyl-7,8-dimethoxy-5H-2,3-benzodiazepine]
Mice [3]
  ED50: 16 mg/kg
  Relative activity: 4.6

## COc1cc2c(cc1OC)C(c1ccc(C)c(N)c1)=NN=C(C)C2 [Example 15, 1-(3-Amino-4-methylphenyl)-4-methyl-7,8-dimethoxy-5H-2,3-benzodiazepine]
Mice [2]
  ED50: 25 mg/kg
Mice [3]
  ED50: 17 mg/kg
  Relative activity: 3.8
[4]
  ED50: 9.7 mg/kg

## COc1cc2c(cc1OC)C(c1ccc(N)c(Cl)c1)=NN=C(C)C2 [Example 18, 1-(3-Chloro-4-aminophenyl)-4-methyl-7,8-dimethoxy-5H-2,3-benzodiazepine]
[1]; 2.5 mg/kg i.p.
  Number of electric shocks tolerated: 7.6 ± 3.0
[1]; 5 mg/kg i.p.
  Number of electric shocks tolerated: 8.3 ± 1.0
Mice [2]
  ED50: 7.6 mg/kg
Mice [3]
  ED50: 7.9 mg/kg
  Relative activity: 8.1

## O=C1CN=C(c2ccccc2)c2cc([N+](=O)[O-])ccc2N1 [Nitrazepam, 7-nitro-5-phenyl-1,3-dihydro-2H-1,4-benzodiazepin-2-one, reference compound]
rats
  ED50: 96 mg/kg
Mice [5]; ip
  ED50: 150 mg/kg
Mice [5]; iv
  ED50: 75 mg/kg
Mice [5]; po
  ED50: 185 mg/kg

## CCC1C(C)=NN=C(c2ccc(OC)c(OC)c2)c2cc(OC)c(OC)cc21 (stereo not drawn) [Tofizopam, 1-(3,4-dimethoxyphenyl)-4-methyl-5-ethyl-7,8-dimethoxy-5H-2,3-benzodiazepine, reference compound]
[1]; 25 mg/kg i.p.
  Number of electric shocks tolerated: 3.6 ± 0.4
[1]; 50 mg/kg i.p.
  Number of electric shocks tolerated: 19.8 ± 3.7
Mice [2]
  ED50: 38 mg/kg
[8]
  further central nervous character (in words), reference drug: in addition to the anxiolytic effect, a weak antidepressant activity
Mice [3]
  ED50: 74 mg/kg
  Relative activity: 1.0
[4]
  ED50: 22 mg/kg
